Consider 4 molecules from patent US6245968A, “Mutated hydroxyphenylpyruvate dioxygenase, DNA sequence and isolation of plants which contain such a gene and which are tolerant to herbicides” (Aventis CropScience S.A., priority 1997, dated 2001).

Data set [1] has as its system O=C(O)C(=O)Cc1ccc(O)cc1. As to the kind of experiment: cells, lysate or membranes named. The settings on record: other: Km of the HPPD for HPP, crude extract, 30° C., pH7.5, pH 7.5.
Data set [2] concerns Pseudomonas fluorescens A32 HPPD variant PfD334 (Glycine334 replaced by aspartic acid). As to the kind of experiment: Colorimetric screening test (browning of medium) in E. coli. The class given is cell-based. The conditions noted are these: 7 mM inhibitor, score 0 to 10. Here is the method:
(§1) A culture medium of the YT broth type, containing 1% agarose (Gibco BRL ultra pure), 5 mM L-tyrosine (Sigma) and the agent for selecting the above mentioned pRPC vector, is dispensed into a 96-well plate at the rate of […] per well. 10 microliter of a culture of E.coli in the exponential phase of growth and harbouring the pRPC vector are dispensed into each well. After 16 hours at 37° C., the wells which only contain the culture medium, or those which have been seeded with an E. coli culture harbouring the vector pKK233-2, are translucent whereas the wells which have been seeded with an E. coli culture harbouring the vector pRPC are coloured brown.
(§2) A series of samples was made up with identical culture medium which contained varying concentrations (0 mM to 14 mM) of 2-cyano-3-cyclopropyl-1-(2-methylsulphonyl-4-trifluoromethylphenyl)propane-1,3-dione (EP 0496631), which was dissolved in water and brought to pH7.5. This molecule is a diketonitrile which is recognized as being an effective inhibitor of HPPD activity (Pallett, K. E. et al., 1997. Pestic. Sci. 50, 83-84).

The test system of data set [3] is Pseudomonas fluorescens A32 HPPD variant PfW334 (Glycine334 replaced by tryptophan). The data set is described as above. The format is cell-based. The conditions noted are these: 7 mM inhibitor, score 0 to 10. Here is the method: as §1, §2
Data set [4] deals with Pseudomonas fluorescens A32 HPPD variant PfS334 (Glycine334 replaced by serine). The data set is described as above. The format is cell-based. The conditions noted are these: 7 mM inhibitor, score 0 to 10. On the procedure: as §1, §2
Data set [5] concerns Pseudomonas fluorescens A32 HPPD variant PfL215 (proline 215 replaced by leucine). The data set is described as above. The format is cell-based. The settings on record: 7 mM inhibitor, score 0 to 10. On the procedure:
as §1, §2

Data set [6] relates to Pseudomonas fluorescens A32 HPPD variant PfP334 (Glycine334 replaced by proline). The data set is described as above. The format is cell-based. The conditions noted are these: 7 mM inhibitor, score 0 to 10. Here is the method:
as §1, §2

The test system of data set [7] is Pseudomonas fluorescens A32 HPPD variant PfE298 (Gly298 replaced by glutamic acid). The data set is described as above. The format is cell-based. The conditions noted are these: 7 mM inhibitor. Here is the method:
as §1, §2

The test system of data set [8] is Pseudomonas fluorescens A32 HPPD variant PfL333 (Phenylalanine333 replaced by leucine). The description is as above. The class given is cell-based. The conditions noted are these: 7 mM inhibitor, score 0 to 10. Here is the method:
as §1, §2

The test system of data set [9] is Pseudomonas fluorescens A32 HPPD, wild type (unmutated, vector pRPC). The data set is described as above. The format is cell-based. The conditions noted are these: 7 mM inhibitor.
From the text: The vector pRPA (described in application WO96/38567), which contains a genomic DNA fragment and the coding region of the gene for HPPD from Pseudomonas fluorescens A32, was digested with NcoI, purified and then ligated into the expression vector pKK233-2 (Clontech), which itself was digested with NcoI, the site for which forms a unique cloning site in this vector. The orientation of the gene in the resulting pRPC vector which permitted expression under the control of the trc promoter was verified.
as §1, with “brown. […]” for “brown.”

Data set [10] concerns the target Synechocystis PCC6803 HPPD, native (unmutated) (Synechocystis sp., UniProt Q55810). As to the kind of experiment: HPPD activity by HPLC determination of homogentisate (Km, IC50).
Data set [11] has as its target T1, Synechocystis PCC6803 HPPD variant SyN318 (Glycine318 replaced with asparagine) (Synechocystis sp., UniProt Q55810, G318N).
T1 construct: made in house; host or cells: E. coli, vector ptrc-99 A; crude extract (JM105 is named for the unmutated plasmid)
Put plainly: Colorimetric screening test (browning of medium) in E. coli. The format is cell-based. The conditions noted are these: 7 mM inhibitor. Here is the method: as §1
(§3) With several mutants at position 334 in Pseudomonas fluorescens having been obtained, two site-directed mutagenesis experiments (U.S.E., Pharmacia) were carried out using the oligonucleotides MUGLYA and MUGLYB, which oligonucleotides were intended to replace the glycine at position 318 (of Synechocystis corresponding to the glycine at position 334 of P.fluorescens) either with an asparagine or a serine or with a proline or an alanine (SEQ ID NO 18 and 19).
(§4) One mutant from each experiment was sequenced.
(§5) Glycine318, replaced with asparagine, designated SyN318, similar to PfD334 (in Example 3).

Data set [12] relates to Synechocystis PCC6803 HPPD variant SyA318 (Glycine318 replaced with alanine). As to the kind of experiment: HPPD activity by HPLC determination of homogentisate (Km, IC50). The class given is biochemical. The conditions noted are these: SyA318 versus unmutated Synechocystis HPPD; 10 min. On the procedure:
(§6) Glycine318, replaced with alanine, designated SyA318, similar to PfA334 (in Example 3).
(§7) The mutants SyN318 and SyA318 which were obtained in the previous example were examined, in comparison with the unmutated HPPD of Synechocystis, for the biochemical characteristics Km and IC50 with regard to an HPPD inhibitor, i.e. 2-cyano-3-cyclopropyl-1-(2-methylsulphonyl-4-trifluoromethylphenyl)propane-1,3-dione. This analysis was carried out using the following protocol:
(§8) The HPPD activity is measured by determining, by means of high performance liquid chromatography (HPLC), the quantity of product, i.e. homogentisate,which is formed after incubating the enzyme with its substrate HPP. Injecting different amounts of homogentisate, varying from 12 to 48 nmoles, into the column enables the retention time of the homogentisate to be determined and the peak area to be correlated with the quantity of product injected.
(§9) The activity measurements are carried out in a final volume of […] containing: 12.6 mM ascorbate, […] iron (FeH8N2O8S2,6H2O) (previously prepared in 0.1 M tris-acetate buffer, pH6), […] of crude extract containing the HPPD, […] HPP and 0.1 M tris-acetate buffer, pH7.5. The enzyme is firstly incubated with the iron at 30° C. for 1 min and then with the ascorbate at 30° C. for 5 min before the reaction is started by adding the substrate, i.e. the HPP. The incubation is continued at 30° C. for 1 min 30sec and the reaction is then stopped by adding […] of 20% perchloric acid. The proteins are then removed by centrifuging for 5min at 15,300 rpm and at 20° C. The supernatant is recovered. The quantity of homogentisate formed is then analysed by injecting […] of assay mixture into a Pico TagC18 column which is connected to the HPLC system. […] On leaving the column, the homogentisate is detected by measuring absorbance at 288 nm. The quantity of product formed is defined by the area of the peak on the chromatogram.
(§10) The Km of the HPPD for HPP is determined by measuring the initial velocity of the reaction using different concentrations of HPP. […]

Data set [13] deals with T2, Synechocystis PCC6803 HPPD variant SyA318 (Glycine318 replaced with alanine) (Synechocystis sp., UniProt Q55810, G318A).
T2 construct: made in house; host or cells: E. coli, vector ptrc-99 A; crude extract (JM105 is named for the unmutated plasmid)
The data set is described as above. The class given is biochemical. Here is the method: as §6, §7, §8, §9, §10

Data set [14] has as its target T2, Synechocystis PCC6803 HPPD variant SyA318 (Glycine318 replaced with alanine). As to the kind of experiment: Colorimetric screening test (browning of medium) in E. coli. The class given is cell-based. The settings on record: 7 mM inhibitor. On the procedure: as §1, §3, §4, §6
Data set [15] addresses T3, Synechocystis PCC6803 HPPD, unmutated (Synechocystis sp., UniProt Q55810).
T3 construct: expressed in transfected cells; host or cells: E. coli JM105, vector ptrc-99 A, IPTG-induced
T3 sequence (Q55810 1-339): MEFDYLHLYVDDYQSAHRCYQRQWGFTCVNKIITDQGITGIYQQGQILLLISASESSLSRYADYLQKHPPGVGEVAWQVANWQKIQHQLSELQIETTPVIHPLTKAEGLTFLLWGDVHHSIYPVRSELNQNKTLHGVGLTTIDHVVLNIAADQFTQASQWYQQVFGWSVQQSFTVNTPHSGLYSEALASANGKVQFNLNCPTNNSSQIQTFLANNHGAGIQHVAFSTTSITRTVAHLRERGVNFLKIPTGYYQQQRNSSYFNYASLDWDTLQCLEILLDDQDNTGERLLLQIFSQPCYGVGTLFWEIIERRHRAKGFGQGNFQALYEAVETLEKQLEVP
Described as above. The format is cell-based. The settings on record: 7 mM inhibitor, 1 mM IPTG. On the procedure:
as §1
The dioxygenase activity of the Synechocystis HPPD which had thus been obtained was observed by the browning of the medium, using the previously described colorimetric test, with addition of IPTG (isopropyl-b-D-thiogalactopyranoside) at a concentration of 1 mM in order to induce expression of the protein.

Data set [16] addresses T1, Synechocystis PCC6803 HPPD variant SyN318 (Glycine318 replaced with asparagine). As to the kind of experiment: HPPD activity by HPLC determination of homogentisate (Km, IC50). The format is biochemical. Here is the method:
as §5, §7, §8, §9, §10

Data set [17] deals with Synechocystis PCC6803 HPPD variant SyN318 (Glycine318 replaced with asparagine). The description is as above. The format is biochemical. The conditions noted are these: SyN318 versus unmutated Synechocystis HPPD; 10 min. Here is the method: as §5, §7, §8, §9, §10
Data set [18] deals with O=C(O)C(=O)Cc1ccc(O)cc1. The data set is described as above. The format is biochemical. The conditions noted are these: other: Km of the HPPD for HPP, crude extract, 30° C., pH7.5, pH 7.5. Here is the method:
as §5, §7, §8, §9, §10

Data set [19] concerns O=C(O)C(=O)Cc1ccc(O)cc1. The description is as above. The settings on record: other: Km of the HPPD for HPP, crude extract, 30° C., pH7.5, pH 7.5. The class given is biochemical. Here is the method: as §6, §7, §8, §9, §10
This is another data set of the same source.

Turning to “Synechocystis PCC6803 HPPD, native (unmutated) (Synechocystis sp. PCC 6803 substr. Kazusa)”, the Km in [1] came out at 60 µM.
As to `CS(=O)(=O)c1cc(C(F)(F)F)ccc1C(=O)C(C#N)C(=O)C1CC1` (stereo not drawn) [2-cyano-3-cyclopropyl-1-(2-methylsulphonyl-4-trifluoromethylphenyl)propane-1,3-dione], the “Activity in the screening test using a selective agent dose of 7 mM” value turned out to be 1 in [2]; 6 in data set [3]; 7 in data set [4]; 7 in [5]; 5 in data set [6]; 3 in data set [7] (score 0 to 10). For the same molecule, the “Activity in the screening test using a selective agent dose of 7 mM” value in [8] is 4; in data set [9] (score 0 to 10), 0. Further, in data set [7], the “colour of the screening medium” value is “turn brown”. Besides, in data set [9] (dissolved in water, pH7.5), the “colour of the bacterial culture in the colorimetric test” value was “totally without colour”. The IC50 in [10] came to 0.08 µM; in data set [13], 40 µM; in [16] it was 80 µM. Moreover, the “browning of the screening medium” value in data set [11] and in data set [14] was “caused browning of the screening medium” each time. Also, the “ratio of the IC50 of a mutant HPPD to the IC50 of the non-mutant HPPD” value in data set [12] was 500; in data set [17], 1000. Also, the “browning of the medium in the colorimetric test” value in data set [15] is on record as “no browning of the medium”.
For the molecule “Synechocystis PCC6803 HPPD variant SyN318 (Glycine318 replaced with asparagine) (Synechocystis sp. PCC 6803 substr. Kazusa; G318N)”, the Km in data set [18] turned out to be 470 µM.
Take “Synechocystis PCC6803 HPPD variant SyA318 (Glycine318 replaced with alanine) (Synechocystis sp. PCC 6803 substr. Kazusa; G318A)”: the Km in [19] worked out at 320 µM.
